# Measured values as given in US10280170B2, “Substituted 4,5,6,7-tetrahydro-pyrazolo[1,5-a]pyrazine derivatives and 5,6,7,8-tetrahydro-4H-pyrazolo[1,5-a][1,4]diazepine derivatives as Ros1 inhibitors” (Janssen Pharmaceutica NV, priority 2014, dated 2019).
# Where two headings read alike, the source gives them in different places.
# Key:
# [1] = biological target: T1, Ros1 enzyme (Homo sapiens, UniProt P08922); assay: Ros1 enzymatic assay; format: biochemical; conditions: Ros1 enzymatic assay; read-out: ROS1 pIC50 (converted)
# T1 construct: 0.5 μg/ml Ros1 enzyme
# T1 sequence (P08922 28-2347): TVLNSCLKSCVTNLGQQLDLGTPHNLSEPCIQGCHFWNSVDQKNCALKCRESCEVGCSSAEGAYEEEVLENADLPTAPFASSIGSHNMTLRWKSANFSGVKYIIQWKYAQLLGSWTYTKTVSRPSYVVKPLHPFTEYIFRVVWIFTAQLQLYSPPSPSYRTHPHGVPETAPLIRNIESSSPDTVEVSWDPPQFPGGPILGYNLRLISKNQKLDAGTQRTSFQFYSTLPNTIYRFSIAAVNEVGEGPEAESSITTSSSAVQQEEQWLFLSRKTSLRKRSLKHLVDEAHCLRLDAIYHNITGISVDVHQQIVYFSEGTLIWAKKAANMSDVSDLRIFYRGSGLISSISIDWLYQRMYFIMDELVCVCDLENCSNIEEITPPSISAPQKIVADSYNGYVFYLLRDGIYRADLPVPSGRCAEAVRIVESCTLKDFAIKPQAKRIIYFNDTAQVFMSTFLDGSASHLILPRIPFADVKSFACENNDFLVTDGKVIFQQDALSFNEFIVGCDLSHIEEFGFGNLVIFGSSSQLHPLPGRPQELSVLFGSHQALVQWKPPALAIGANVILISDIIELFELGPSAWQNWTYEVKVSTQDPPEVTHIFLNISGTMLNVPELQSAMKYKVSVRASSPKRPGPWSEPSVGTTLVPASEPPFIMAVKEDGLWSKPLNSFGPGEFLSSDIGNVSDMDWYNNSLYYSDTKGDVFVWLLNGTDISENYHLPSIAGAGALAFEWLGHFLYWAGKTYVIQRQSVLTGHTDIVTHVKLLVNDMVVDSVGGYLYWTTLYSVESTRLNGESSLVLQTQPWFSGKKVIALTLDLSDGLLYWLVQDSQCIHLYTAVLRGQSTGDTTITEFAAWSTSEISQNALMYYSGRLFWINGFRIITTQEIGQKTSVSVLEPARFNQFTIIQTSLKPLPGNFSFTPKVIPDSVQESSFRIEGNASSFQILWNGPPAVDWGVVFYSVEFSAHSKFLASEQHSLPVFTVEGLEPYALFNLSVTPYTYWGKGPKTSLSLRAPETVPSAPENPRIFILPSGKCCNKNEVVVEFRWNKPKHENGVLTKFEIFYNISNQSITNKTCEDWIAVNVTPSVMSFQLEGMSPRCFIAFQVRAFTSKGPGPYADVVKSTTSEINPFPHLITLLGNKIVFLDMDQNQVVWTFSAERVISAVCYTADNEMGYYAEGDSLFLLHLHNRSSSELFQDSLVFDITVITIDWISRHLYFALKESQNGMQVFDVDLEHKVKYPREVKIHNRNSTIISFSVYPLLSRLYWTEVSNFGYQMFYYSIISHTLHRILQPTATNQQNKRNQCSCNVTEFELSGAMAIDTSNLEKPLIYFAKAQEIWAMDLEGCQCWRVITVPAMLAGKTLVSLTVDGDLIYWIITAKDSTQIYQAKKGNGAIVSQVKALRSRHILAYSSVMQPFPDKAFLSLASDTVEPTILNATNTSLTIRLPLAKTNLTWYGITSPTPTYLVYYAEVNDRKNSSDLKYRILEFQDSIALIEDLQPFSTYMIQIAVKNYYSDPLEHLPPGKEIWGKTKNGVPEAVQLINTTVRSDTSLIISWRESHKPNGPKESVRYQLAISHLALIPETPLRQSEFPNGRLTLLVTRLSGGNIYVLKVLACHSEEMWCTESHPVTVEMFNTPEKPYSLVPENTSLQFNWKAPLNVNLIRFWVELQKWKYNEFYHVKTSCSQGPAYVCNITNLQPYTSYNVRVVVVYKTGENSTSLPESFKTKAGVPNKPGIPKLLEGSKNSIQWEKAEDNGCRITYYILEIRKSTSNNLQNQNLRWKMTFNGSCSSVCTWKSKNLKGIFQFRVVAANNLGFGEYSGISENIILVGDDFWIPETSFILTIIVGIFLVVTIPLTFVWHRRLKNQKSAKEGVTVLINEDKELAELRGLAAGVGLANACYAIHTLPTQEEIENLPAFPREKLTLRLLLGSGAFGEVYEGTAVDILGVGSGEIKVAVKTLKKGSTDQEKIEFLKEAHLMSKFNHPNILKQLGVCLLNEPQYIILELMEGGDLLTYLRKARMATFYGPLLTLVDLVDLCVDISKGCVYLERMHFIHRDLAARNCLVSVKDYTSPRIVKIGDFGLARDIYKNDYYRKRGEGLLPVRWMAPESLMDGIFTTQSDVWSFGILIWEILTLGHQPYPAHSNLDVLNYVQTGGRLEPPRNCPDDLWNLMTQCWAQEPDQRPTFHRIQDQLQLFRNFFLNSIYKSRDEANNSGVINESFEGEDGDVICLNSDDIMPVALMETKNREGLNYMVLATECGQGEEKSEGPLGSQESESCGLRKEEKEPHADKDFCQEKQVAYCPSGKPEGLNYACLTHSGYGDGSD
# Procedure, shortened: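 Ros1 kinase, IRS-Tide peptide, 20 μM ATP + [33P]ATP (substrate-mix concentrations); Tris-HCl pH7.5, 10 mM MgCl2, 1 mM EGTA, 0.01% Tween-20; 120 min RT; EDTA/excess ATP stop, streptavidin beads 15 min, LEADseeker imaging.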
# [2] = biological target: T2, Ba/F3 cells containing Ros1 wild-type protein (Homo sapiens, UniProt P08922, cells depend on it, form not given); assay: Ba/F3-Ros1 cell proliferation assay, wild-type Ros1; format: cell-based, murine; conditions: without IL-3
# T2 construct: The background only speaks of 'a number of different unrelated proteins' and names SLC34A2-ROS1 for HCC78 cells
# T2 sequence (P08922 whole entry, stated change not applied): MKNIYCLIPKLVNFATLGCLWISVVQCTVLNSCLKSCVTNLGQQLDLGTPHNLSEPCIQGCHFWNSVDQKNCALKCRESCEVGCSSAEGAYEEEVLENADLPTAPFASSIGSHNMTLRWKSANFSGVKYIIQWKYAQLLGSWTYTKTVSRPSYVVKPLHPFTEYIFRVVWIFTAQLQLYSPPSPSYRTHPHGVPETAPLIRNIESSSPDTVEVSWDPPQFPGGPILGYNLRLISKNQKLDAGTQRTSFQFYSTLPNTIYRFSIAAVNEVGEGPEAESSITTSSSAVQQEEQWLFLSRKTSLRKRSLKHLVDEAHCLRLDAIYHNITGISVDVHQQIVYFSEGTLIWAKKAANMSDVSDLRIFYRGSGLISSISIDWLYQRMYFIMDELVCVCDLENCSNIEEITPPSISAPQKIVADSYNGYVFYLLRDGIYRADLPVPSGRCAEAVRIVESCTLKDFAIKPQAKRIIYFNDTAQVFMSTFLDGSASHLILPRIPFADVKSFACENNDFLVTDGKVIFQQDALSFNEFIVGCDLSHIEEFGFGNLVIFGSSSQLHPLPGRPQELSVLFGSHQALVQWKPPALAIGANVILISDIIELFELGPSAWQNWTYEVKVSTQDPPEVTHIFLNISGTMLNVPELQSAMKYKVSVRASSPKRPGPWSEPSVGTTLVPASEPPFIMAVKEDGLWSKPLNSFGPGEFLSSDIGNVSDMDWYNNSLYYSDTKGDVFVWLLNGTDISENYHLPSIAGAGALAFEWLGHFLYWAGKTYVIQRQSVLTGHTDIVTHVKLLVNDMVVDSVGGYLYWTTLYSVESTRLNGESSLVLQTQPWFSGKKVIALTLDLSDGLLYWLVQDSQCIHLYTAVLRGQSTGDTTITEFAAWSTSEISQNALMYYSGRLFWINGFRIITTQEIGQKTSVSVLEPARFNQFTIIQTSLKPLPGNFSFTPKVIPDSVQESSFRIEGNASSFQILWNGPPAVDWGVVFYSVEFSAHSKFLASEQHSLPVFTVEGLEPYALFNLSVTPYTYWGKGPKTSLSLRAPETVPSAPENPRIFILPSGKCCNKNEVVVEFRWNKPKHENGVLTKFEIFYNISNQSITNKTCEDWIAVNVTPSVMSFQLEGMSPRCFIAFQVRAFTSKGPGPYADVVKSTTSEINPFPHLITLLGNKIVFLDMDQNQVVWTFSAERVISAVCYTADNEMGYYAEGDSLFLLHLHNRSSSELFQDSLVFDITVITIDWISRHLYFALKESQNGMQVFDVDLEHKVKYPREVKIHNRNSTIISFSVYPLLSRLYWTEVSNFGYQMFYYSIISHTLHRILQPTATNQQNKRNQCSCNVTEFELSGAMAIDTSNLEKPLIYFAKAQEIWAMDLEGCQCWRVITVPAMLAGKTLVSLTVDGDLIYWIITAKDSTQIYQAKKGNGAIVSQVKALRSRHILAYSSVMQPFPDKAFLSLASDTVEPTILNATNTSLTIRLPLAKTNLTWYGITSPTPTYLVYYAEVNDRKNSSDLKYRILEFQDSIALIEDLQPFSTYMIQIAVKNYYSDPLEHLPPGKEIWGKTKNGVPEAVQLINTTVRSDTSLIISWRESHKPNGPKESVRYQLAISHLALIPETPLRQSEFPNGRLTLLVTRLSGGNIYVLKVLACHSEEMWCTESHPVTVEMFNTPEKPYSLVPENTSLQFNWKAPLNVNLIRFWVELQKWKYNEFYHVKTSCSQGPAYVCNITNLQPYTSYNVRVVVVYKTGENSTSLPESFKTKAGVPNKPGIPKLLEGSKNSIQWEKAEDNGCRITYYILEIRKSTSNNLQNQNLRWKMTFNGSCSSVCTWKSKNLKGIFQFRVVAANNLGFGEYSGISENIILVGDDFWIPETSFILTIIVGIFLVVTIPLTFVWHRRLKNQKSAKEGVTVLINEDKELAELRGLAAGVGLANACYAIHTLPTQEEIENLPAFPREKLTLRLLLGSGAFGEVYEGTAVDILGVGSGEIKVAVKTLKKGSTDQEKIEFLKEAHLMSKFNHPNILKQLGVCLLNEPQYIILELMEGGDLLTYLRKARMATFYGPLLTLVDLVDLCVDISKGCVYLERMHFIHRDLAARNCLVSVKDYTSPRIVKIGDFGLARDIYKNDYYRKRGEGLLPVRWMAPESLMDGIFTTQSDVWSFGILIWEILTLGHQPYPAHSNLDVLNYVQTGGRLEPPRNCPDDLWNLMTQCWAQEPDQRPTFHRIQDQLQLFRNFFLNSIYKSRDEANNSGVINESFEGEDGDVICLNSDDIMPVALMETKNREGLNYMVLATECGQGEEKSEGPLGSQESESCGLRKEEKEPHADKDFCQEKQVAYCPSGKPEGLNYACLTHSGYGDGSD
# Procedure, shortened: (§1)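 Compounds dispensed from 100% DMSO; Ba/F3 cells carrying one of three Ros1 forms added at 20000/well in RPMI-1640 with 10% FBS. Plates kept 24 h at 37 °C under 5% CO2. Alamar Blue added, 4 h further incubation, fluorescence measured at 540/590 nm.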
# [3] = system: HCC78 non-small cell lung cancer cells; assay: HCC78 cell proliferation assay; format: cell-based; conditions: Homo sapiens, HCC78, 96 h, read-out: HCC-78 PROL pEC50 (converted)
# Procedure, shortened: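 HCC78 NSCLC cells (~1000/well) in RPMI-1640 with 10% FBS were treated 24 h after seeding and exposed to compound for 4 days at 37 °C. Viability was read by MTT, with absorbance at 538 nm after DMSO/glycine solubilization.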
# [4] = biological target: Ba/F3 cells containing Ros1 with G2032R mutation (Homo sapiens, UniProt P08922, G2032R, cells depend on it, form not given); assay: Ba/F3-Ros1 cell proliferation assay, G2032R crizotinib-resistance mutant; format: cell-based, murine; conditions: without IL-3
# Sequence of Ba/F3 cells containing Ros1 with G2032R mutation (P08922 whole entry G2032R, form open): as the sequence (P08922 whole entry, stated change not applied) above, with G2032R counted along it
# Description: Ba/F3-Ros1 Cell Proliferation Assay
# This assay was carried out with Ba/F3 cells containing three different versions of Ros1: the wild-type protein, protein with a mutation at the gatekeeper residue (L2026M), and protein with a mutation identified in a tumor from a patient that became resistant to crizotinib (Xalkori®) treatment (G2032R). Compounds were solubilized in 100% DMSO (dimethyl sulfoxide) and sprayed into polystyrene, tissue culture treated 384-well plates. A 50 μl volume of cell culture medium (phenol red free RPMI-1640, 10% FBS (fetal bovine serum), 2 mM L-Glutamine) containing 20000 Ba/F3-Ros1 cells was added to each well and the plates were placed in an incubator at 37° C. and 5% CO2. After 24 hours, 10 μl of Alamar Blue solution (0.5 mM K3Fe(CN)6, 0.5 mM K4Fe(CN)6, 0.15 mM Resazurin and 100 mM Phosphate Buffer) was added to the wells, incubated for 4 hours at 37° C. and 5% CO2 before RFU's (Relative Fluorescence Units) (ex. 540 nm., em. 590 nm.) were measured in a fluorescence plate reader.
# [5] = system: Ros pY2274 in HCC78 cells; assay: pROS1 immunofluorescence assay in HCC78 cells; format: cell-based; conditions: Homo sapiens, read-out: HCC78-pRos1 pIC50 (converted)
# Description: pROS1 Immunofluorescence Assay in HCC78 Cells
# Approximately 20000 HCC78 non-small cell lung cancer cells in 180 μl of cell culture medium (RPMI-1640, 10% FBS, 2 mM L-Glutamine, 10 mM Hepes, 1 mM sodium pyruvate, 4.5 g/L glucose, 1.5 g/L sodium bicarbonate, 25 μg/ml Gentamycin) were seeded in each well of a 96-well polystyrene, poly-D-lysine coated plate and incubated at 37° C. and 5% CO2. After 24 hours, compounds were diluted in cell culture medium from which 20 μl was added to the wells containing cells and incubated for 4 hours at 37° C. and 5% CO2. The medium was removed and the cells were fixed by adding 100 μl of 5% formaldehyde in TBS (tris-buffered saline) (50 mM Tris.HCl, pH 7.4, 150 mM NaCl) and incubating for 15 minutes at room temperature. The formaldehyde was removed and replaced with methanol for 10 minutes at room temperature, after which the cells were washed 3 times with TBS containing 1% Triton X-100 and incubated in Odyssee (Li-Cor) blocking buffer for 1 hour at room temperature. The cells were then incubated with the primary rabbit antibody directed against Ros pY2274 (cst-3078) diluted 1/200 in blocking buffer for 24 hours at room temperature. The cells were washed three times with TBS containing 0.1% Triton X-100 and incubated with a secondary anti-rabbit antibody conjugated to the fluorescent dye Alexafluor 680 in blocking buffer for 1 hour at room temperature. The cells were washed three times with TBS containing 0.1% Triton X-100 and left to dry before measuring RFUs (Relative Fluorescence Units) at 700 nm using a fluorescence imager.
# The same experiment was performed using total Ros1 antibody (sc-6347) diluted 1/1000 instead of Ros1 pY2274 antibody and an anti-goat antibody conjugated to IRDye800cw as a secondary antibody. RFUs were measured at […]. The signals from total Ros1 detection were used to normalize the Ros1 pY2274 values.
# [6] = system: Ba/F3 cells containing Ros1 wild-type protein + IL-3; assay: Ba/F3-Ros1 cell proliferation counter-screen, wild-type protein in the presence of 10 ng/ml murine IL-3; format: cell-based; conditions: Mus musculus, BaF3, 24 h, read-out: BaF3-ROS1 + IL3 pIC50 (converted)
# Procedure, shortened: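 Read-out is resazurin-based Alamar Blue fluorescence (RFU, ex 540 nm, em 590 nm), measured 4 h after dye addition. Before that, wild-type Ros1 Ba/F3 cells had been cultured 24 h with compound in the presence of 10 ng/ml murine IL-3.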
# [7] = biological target: Ba/F3 cells containing Ros1 with a mutation at the gatekeeper residue (L2026M) (Homo sapiens, UniProt P08922, L2026M, cells depend on it, form not given); assay: Ba/F3-Ros1 cell proliferation assay, L2026M gatekeeper mutant; format: cell-based, murine; conditions: without IL-3
# Sequence of Ba/F3 cells containing Ros1 with a mutation at the gatekeeper residue (L2026M) (P08922 whole entry L2026M, form open): as the sequence (P08922 whole entry, stated change not applied) above, with L2026M counted along it
# Procedure, shortened: as §1
# [8] = HCC78 cells, 4 hours, Ros pY2274 normalized to total Ros1
# [9] = counter-screen, wild-type, 10 ng/ml murine IL-3
"EC50 ([3]; HCC78 cells, 4 days, MTT)",Structure (SMILES),IC50 [1],BaF3-ROS1-IL3 pIC50 [2],Ba/3 Ros1 G2032R (-IL-3) pIC50 [4],melting point,"IC50 [5, 8]","CC50 [6, 9]",EC50 [3],Ba/F3 Ros1 L2026M (-IL-3) pIC50 [7],"IC50 ([5]; HCC78, 4 h)",CC50 [6]
1.58 µM,c1cc(-c2nn3c(c2-c2ccc(OCc4ccc(C5CC5)cc4)cc2)CNC2(CC2)C3)ccn1 [Compound 171],0.398 µM,6.2,6.0,152 °C,0.501 µM,> 10 µM,–,–,–,–
1.58 µM,O=C1NC2(CNC2)Cn2nc(-c3ccncc3)c(-c3ccc(OCc4ccc(C5CC5)cc4)cc3)c21 [Compound 183],0.2 µM,6.0,5.6,173 °C,0.398 µM,> 10 µM,–,–,–,–
–,O=C1NCCn2nc(-c3ccncc3)c(-c3ccc(OCc4ccc(C5CC5)cc4)cc3)c21 [Compound 4],0.0398 µM,7.6,6.8,262 °C,–,–,0.2 µM,7.4,0.0794 µM,> 10 µM
0.794 µM,CNC(=O)CN1CCn2nc(-c3ccncc3)c(-c3ccc(OCc4ccc(C(C)C)cc4)cc3)c2C1 [Compound 174],0.2 µM,6.8,6.4,185 °C,0.251 µM,> 10 µM,–,6.8,–,–
–,CC(C)c1ccc(COc2ccc(-c3c(-c4ccncc4)nn4c3C(=O)N(CC3(C)COC3)CC4)cc2)cc1 [Compound 54],0.0794 µM,7.3,6.6,204 °C,–,–,0.0794 µM,7.2,0.02 µM,> 10 µM
3.98 µM,c1cc(-c2nn3c(c2-c2ccc(OCc4ccc(C5CC5)cc4)cc2)CNCC3)ccn1 [Compound 172],0.631 µM,6.4,5.2,–,0.316 µM,> 10 µM,–,6.3,–,–
–,CC(C)c1ccc(COc2ccc(-c3c(-c4ccncc4)nn4c3C(=O)NCC4)c(F)c2)cc1 [Compound 6],0.01 µM,7.9,7.4,271 °C,–,–,0.0631 µM,7.7,0.0158 µM,> 10 µM
–,CC(C)c1ccc(COc2ccc(-c3c(-c4ccncc4)nn4c3C(=O)NCC4)cn2)cc1 [Compound 71],0.0251 µM,7.7,7.0,199 °C,–,–,0.1 µM,7.6,0.0398 µM,> 10 µM
–,CC(C)c1ccc(COc2ccc(-c3c(-c4ccncc4)nn4c3C(=O)N(C(C)C)CC4)cc2)cc1 [Compound 49],0.0398 µM,7.3,6.9,168 °C,–,–,0.1 µM,7.2,0.0316 µM,> 10 µM
–,CC(C)c1ccc(COc2ccc(-c3c(-c4ccnc(N)c4)nn4c3C(=O)NCC4)cc2)cc1 [Compound 7],0.0398 µM,7.4,6.8,267 °C,–,–,0.251 µM,7.4,0.1 µM,> 10 µM
–,O=C1NCCn2nc(-c3ccncc3)c(-c3ccc(OCc4ccc(OC(F)(F)F)cc4)cc3)c21 [Compound 116],0.126 µM,7.3,6.6,260 °C,–,–,0.251 µM,7.3,0.158 µM,> 10 µM
0.501 µM,CN1CCn2nc(-c3ccncc3)c(-c3ccc(OCc4ccc(C5CC5)nc4)cc3)c2C1=O [Compound 138],0.1 µM,6.9,6.0,175 °C,0.316 µM,> 10 µM,–,6.8,–,–
–,CC(C)c1ccc(COc2ccc(-c3c(-c4ccncn4)nn4c3C(=O)NCC4)cc2)cc1 [Compound 158],0.0501 µM,7.4,6.5,–,–,–,0.316 µM,7.4,0.126 µM,> 10 µM
–,COc1cc(-c2c(-c3ccncc3)nn3c2C(=O)NCC3)ccc1OCc1ccc(C(C)C)cc1 [Compound 32],0.00631 µM,8.0,7.3,187 °C,–,–,0.0501 µM,8.0,0.0158 µM,> 10 µM
–,CC(C)c1cc(F)c(COc2ccc(-c3c(-c4ccncc4)nn4c3C(=O)N(CCO)CC4)cc2)cc1F [Compound 97],0.158 µM,6.9,<5,147 °C,–,–,3.16 µM,6.3,–,> 10 µM
1 µM,COc1ccc(COc2ccc(-c3c(-c4ccncc4)nn4c3C(=O)NCC4)cc2)cc1 [Compound 112],0.158 µM,6.8,5.8,260 °C,0.316 µM,> 10 µM,–,–,–,–
–,CNC(=O)CN1CCn2nc(-c3ccncc3)c(-c3ccc(OCc4ccc(C(C)C)cc4)cc3)c2C1=O [Compound 63],0.1 µM,7.1,6.7,161 °C,–,–,0.398 µM,7.3,–,> 10 µM
